Data reported in patent US20260240818A1, “METHODS FOR THE TREATMENT OF FOOD ALLERGY” (INSTITUT NATIONAL DE LA SANTÉ ET DE LA RECHERCHE MÉDICALE, priority 2023, published 2026).
Entries after “also recorded” stand apart in the source; their conditions may differ.

Assays:
peanut-sensitized mice = assay: Peanut allergy mouse model: clinical score and diarrhoea after oral peanut extract challenge; format: in vivo; conditions: for clinical score / incidence of diarrhoea: FOS-enriched diet; for clinical score: average of days 1-3 of oral PE challenge; for incidence of diarrhoea: oral PE challenge
Experimental: All mice were bred and maintained on a peanut- and soy-free diet under specific pathogen-free conditions until the start of the experiment.
Pyridoxamine: pyridoxamine dihydrochloride (Sigma-Aldrich, France) is added to drinking water at 1 mg/ml throughout the experiment.
RAGE antagonist FPS-ZM1: twice weekly 100 μl IP injections of FPS-ZM1 in PBS (Sigma Aldrich, France) at 0 (control group), 0.5, or 1 mg/kg b.w. were performed throughout the experiment.
Clinical score (Table 2) was continually observed from 15 to 50 minutes after oral allergen challenge and noted for each mouse. For analysis purposes, the average clinical score of the first 3 days of challenge is calculated for each mouse.
Experimental groups were compared by One-Way ANOVA, selected groups were compared using Holm-Sidak's correction for multiple comparisons. For diarrhoea data, pairwise comparisons of survival curves were performed and analysed by Mantel-Cox log-rank test.

peanut-specific IgE = assay: Peanut-specific IgE ELISA on serum from the peanut allergy model; format: in vivo, mouse; conditions: FOS-enriched diet, serum after last PE challenge
Experimental: On days 1, 7, and 21 mice were sensitized with 500 μg of peanut extract (PE) together with 2 mg of Imject alum (Thermo Fisher, France) by intraperitoneal (IP) injection (100 μl in PBS). Starting from day 35, for 7 days, mice were challenged with 30 mg of PE in NaHCO3 (0.1M) by oral gavage, and clinical score (Table 2) and occurrence of diarrhoea was registered for 1 hours after each gavage. After the last challenge, blood is collected for serum extraction. Non-allergic control animals were sham sensitized (2 mg alum but no peanut extract) but challenged like the other experimental groups. Peanut Extract (PE) was coated on ELISA plates at 5 μg/ml in 0.05 M sodium carbonate-bicarbonate buffer (Sigma-Aldrich, France) over-night at 4° C., plates were washed 3 times with PBS-0.05% Tween 20 (Sigma-Aldrich, France). […] Sample preparation: Mouse serum from blood collected 1 hour after the last oral peanut challenge was diluted 1/50 in ELISA assay buffer (1×) from the ELISA kit used. The colorimetric reaction was stopped by addition of H2SO4 (5M) and absorbance was recorded at 450 nm.

[1] = pyridoxamine 1 mg/ml in drinking water throughout
[2] = FPS-ZM1 0.5 or 1 mg/kg b.w. i.p. twice weekly

Row | SMILES | aggravating effects of the FOS-enriched diet on peanut allergic reactions (peanut-sensitized mice; [1]) | clinical score (peanut-sensitized mice; [1]) | incidence of diarrhoea (peanut-sensitized mice; [1]) | serum peanut-specific IgE levels (peanut-specific IgE; [1]) | FOS-induced aggravating effects in a mouse model of peanut allergy (peanut-sensitized mice; [2]) | clinical score (peanut-sensitized mice; [2]) | incidence of diarrhoea (peanut-sensitized mice; [2]) | allergen-specific IgE levels (peanut-specific IgE; [2])
1 | Cc1ncc(CO)c(CN)c1O [pyridoxamine] | eliminates; also recorded: block | reduced | reduced | reduced |  |  |  | 
2 | O=C(c1ccc(Cl)cc1)N(Cc1ccccc1)C1CCCCC1 [FPS-ZM1, 4-Chloro-N-cyclohexyl-N-(phenylmethyl)benzamide] |  |  |  |  | eliminates; also recorded: limit | lowering | lowering | lowering
